Experimental findings from ChEMBL document CHEMBL1201862, “PubChem BioAssay data set” (2004) are described below.

Test systems include A498; CAKI-1; CCRF-CEM; COLO 205; EKVX; HOP-62; HT-29; Malme-3M; NCI-H23; NCI-H460; NCI-H522; OVCAR-4; OVCAR-5; RPMI-8226; SF-539; SK-MEL-5; SNB-19; SW-620; UO-31; ACHN.
Holding throughout (assay): inhibition of tumour cell growth, NCI panel, 48 h

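Cultured in 96-well plates, cells were exposed to test compound for 48 hours across five concentrations. GI50 is the concentration that inhibits growth by half.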 Calls of active or inactive are those of the source. Rule as the data show it: active = GI50 up to about 1.1 µM and inactive = higher.

In the case of `CC1C(=O)OC2CC[N+]3(CC(=O)c4ccc(Br)cc4)CC=C(COC(=O)C(C)(O)C1(C)O)C23` (stereo not drawn), the GI50 in the test with A498, in the test with CAKI-1, with CCRF-CEM, in the test with COLO 205, with EKVX and with HOP-62 was > 375 µM (inactive) each time. The GI50 in the test with HT-29, with Malme-3M, with NCI-H23, in the test with NCI-H460, with NCI-H522 and in the test on OVCAR-4 was > 375 µM (inactive) in each case. Also, the GI50 with OVCAR-5, with RPMI-8226, in the test with SF-539, in the test on SK-MEL-5, in the test on SNB-19 and in the test on SW-620 was > 375 µM (inactive) each time. In addition, in the test with UO-31, the GI50 was > 375 µM (inactive).

For the compound `O=C(N/C(=C\c1cccc([N+](=O)[O-])c1)c1nc2c(O)nc(S)nc2[nH]1)c1ccccc1`, the GI50 in the test on A498, in the test on ACHN, in the test on CAKI-1, in the test with CCRF-CEM, with COLO 205 and with EKVX was > 100 µM (inactive) throughout. Besides, the GI50 in the test on HOP-62 was > 100 µM (inactive); in the test on HT-29, > 100 µM (inactive); in the test on Malme-3M, > 100 µM (inactive); in the test on NCI-H23 it was > 100 µM (inactive); with NCI-H460 it was > 100 µM (inactive); in the test on NCI-H522, 66.8 µM (inactive). The GI50 in the test on OVCAR-4 is > 100 µM (inactive); in the test on OVCAR-5, > 100 µM (inactive); with RPMI-8226, 97.1 µM (inactive); in the test with SF-539 it was > 100 µM (inactive); in the test on SK-MEL-5 it was > 100 µM (inactive); with SNB-19, > 100 µM (inactive). Further, the GI50 with SW-620 was > 100 µM (inactive); in the test on UO-31 it was 24.5 µM (inactive).

With `CN(C)CCNC(=O)Cn1ccc(=O)c2ccc([N+](=O)[O-])cc21`, the GI50 with A498 is > 100 µM (inactive); with ACHN it was > 100 µM (inactive); with CAKI-1, > 100 µM (inactive); in the test with CCRF-CEM, > 100 µM (inactive); with COLO 205, 47.1 µM (inactive); in the test with EKVX it was > 100 µM (inactive). Besides, the GI50 in the test with HOP-62 is > 100 µM (inactive); in the test on HT-29 it was 52 µM (inactive); in the test on Malme-3M, 44.7 µM (inactive); in the test with NCI-H23, > 100 µM (inactive); in the test on NCI-H460, > 100 µM (inactive); in the test on NCI-H522, > 100 µM (inactive). Further, the GI50 with OVCAR-4 was 17.5 µM (inactive); in the test on OVCAR-5, > 100 µM (inactive); with RPMI-8226, > 100 µM (inactive); with SF-539 it was > 100 µM (inactive); with SK-MEL-5, > 100 µM (inactive); with SNB-19, > 100 µM (inactive). For the same compound, the GI50 with SW-620 and in the test on UO-31 was > 100 µM (inactive) each time.

On to `N=S(=O)(c1ccccc1)c1ccccc1`, for which the GI50 was > 100 µM (inactive) with A498; > 100 µM (inactive) with ACHN; > 100 µM (inactive) in the test with CAKI-1; 24.2 µM (inactive) in the test with CCRF-CEM; > 100 µM (inactive) with COLO 205; > 100 µM (inactive) in the test with EKVX. For the same compound, the GI50 in the test with HOP-62 is > 100 µM (inactive); with HT-29 it was > 10 µM (inactive); with Malme-3M it was > 100 µM (inactive); in the test on NCI-H23 it was > 100 µM (inactive); in the test with NCI-H460 it was > 100 µM (inactive); in the test on NCI-H522 it was > 100 µM (inactive). In addition, the GI50 in the test with OVCAR-4, in the test with OVCAR-5, with RPMI-8226, in the test with SF-539, in the test on SK-MEL-5 and with SNB-19 was > 100 µM (inactive) throughout. Besides, the GI50 with SW-620 and in the test with UO-31 was > 100 µM (inactive) in each case.

On to `CC1C(O)[C@@]2(OC[C@@]34C(=O)CC5(O)[C@H](CCC6Cc7nc8c(nc7C[C@]65C)CC5CC[C@@H]6C7=C[C@H]9O[C@@]%10(O[C@@](C)(CO)C[C@@H]%10O)C(C)[C@@]9(O)[C@]7(C)[C@@H](O)CC6[C@]5(C)C8)C3=CC[C@H]4C2C)OC1(C)C` (stereo partly drawn), for which the GI50 with A498 was < 0.000355 µM (active); with CAKI-1 it was 0.0119 µM (active); in the test on CCRF-CEM, < 0.000355 µM (active); in the test on COLO 205 it was 0.00532 µM (active); with EKVX it was 0.00084 µM (active); in the test with HOP-62 it was < 0.000355 µM (active). The GI50 is 0.000622 µM (active) in the test on HT-29; 0.00287 µM (active) in the test with Malme-3M; 0.00127 µM (active) with NCI-H23; < 0.000355 µM (active) in the test on NCI-H460; 0.00308 µM (active) in the test with NCI-H522; 0.604 µM (active) with OVCAR-4. Also, the GI50 is 0.00211 µM (active) in the test on OVCAR-5; < 0.000355 µM (active) in the test with RPMI-8226; < 0.000355 µM (active) in the test with SF-539; 0.00667 µM (active) in the test on SK-MEL-5; 0.00259 µM (active) in the test with SNB-19; 0.000385 µM (active) in the test with SW-620. For the same compound, the GI50 with UO-31 was 0.0254 µM (active).
